Where “and” joins values, the source holds several entries; their conditions need not be identical. Equal values may be shown once.
Legend:
Erysiphe graminis = assay: Test on preventive effect against wheat powdery mildew; assay type: in vivo, Erysiphe graminis on wheat (cultivar: Norin-61); parameters: key: control value = (1 − a/b)×100; a, b = sporulation area treated/untreated; conditions: single compound alone
Procedure: Wheat (cultivar: Norin-61) was cultivated in a plastic pot having a diameter of 7.5 cm, and when it reached 1.5-leaf stage, a chemical solution having each test compound adjusted to a prescribed concentration, was applied by a spray gun in an amount of 5 ml/seedling. After the chemical solution dried, conidia of Erysiphe graminis were dusted and inoculated and maintained in a constant temperature chamber at 20° C. From 6 to 8 days after the inoculation, the area of sporulation was investigated, and the control value was determined in accordance with the following formula, and the results are shown in Tables 1 to 7. The area of sporulation in the non-treated plot was determined in the same manner as for the treated plot except that water was applied by a spray gun instead of the chemical solution.
(§1) Control value=(1−a/b)×100
a: area of sporulation in the treated plot
b: area of sporulation in the non-treated plot
Based on the obtained control value, an expected value (control value) was calculated by the Colby's formula. The expected values by the Colby's formula are also shown in brackets ( ) in Tables 1 to 7.
When the experimental value is higher than the expected value, the fungicidal composition of the present invention has a synergistic effect against wheat powdery mildew.

Botrytis cinerea = assay: Test on preventive effect against kidney bean gray mold; assay type: in vivo, Botrytis cinerea on kidney bean (cultivar: Taishokintoki); conditions: single compound alone
Procedure: Kidney bean (cultivar: Taishokintoki) was cultivated in a plastic pot having a diameter of 12 cm, and when it reached 3 to 4-leaf stage, a chemical solution having each test compound adjusted to a prescribed concentration, was applied by a spray gun in an amount of 10 ml/seedling. After the chemical solution dried, a suspension of conidia of Botrytis cinerea was blotted on a paper disk having a diameter of 8 mm for implantation inoculation and maintained in a constant temperature chamber at 20° C. Upon expiration of 3 days from the inoculation, the lesion area was investigated, and the control value was determined in accordance with the following formula, and the results are shown in Table 8. The lesion area in the non-treated plot was determined in the same manner as for the treated plot except that water was applied by a spray gun instead of the chemical solution.
as §1
a: lesion area in the treated plot
b: lesion area in the non-treated plot
Based on the obtained control value, an expected value (control value) was calculated by the Colby's formula. The expected values by the Colby's formula are also shown in brackets ( ) in Table 8.
When the experimental value is higher than the expected value, the fungicidal composition of the present invention has a synergistic effect against kidney bean gray mold.

**Q.** `Cn1cc(C(=O)Nc2ccccc2C2CC2C2CC2)c(C(F)F)n1` (centres unmarked) [sedaxane] was tested. Which Control value (Erysiphe graminis; 6.3 ppm) did it give?
**A.** 0

**Q.** What about the Control value (Erysiphe graminis; 12.5 ppm) of the same compound?
**A.** 30

**Q.** For `CC(C)C1C2CCC1c1c(NC(=O)c3cn(C)nc3C(F)F)cccc12` (centres unmarked) [isopyrazam], which Control value (Erysiphe graminis; 16 ppm) is on record?
**A.** 50

**Q.** And the Control value (Erysiphe graminis; 31 ppm)?
**A.** 90

**Q.** How did the Control value (Erysiphe graminis; 63 ppm) turn out when `C=CCSC(=O)n1c(N)c(-c2ccccc2C)c(=O)n1C(C)C` [fenpyrazamine] was run?
**A.** 0

**Q.** And the Control value (Erysiphe graminis; 250 ppm)?
**A.** 0

**Q.** Which results are given for `COc1cc(C)c(C(=O)c2c(OC)ncc(Cl)c2C)c(OC)c1OC` [component (a), 3-(2,3,4-trimethoxy-6-methylbenzoyl)-5-chloro-2-methoxy-4-methylpyridine]?
**A.** Control value (Erysiphe graminis; 0.25 ppm): 30; Control value (Erysiphe graminis; 0.5 ppm, spray, area of sporulation 6 to 8 days after inoculation): 50 and 40; Control value (Botrytis cinerea; 200 ppm): 0; Control value (Botrytis cinerea; 400 ppm, spray, lesion area 3 days after inoculation): 0

**Q.** With `Cn1cc(C(=O)Nc2ccccc2-c2cc(F)c(F)c(F)c2)c(C(F)F)n1` [fluxapyroxad] as the compound, how does the Control value (Erysiphe graminis; 6.3 ppm) read?
**A.** 30

**Q.** And the Control value (Erysiphe graminis; 50 ppm)?
**A.** 50

**Q.** Which results are given for `Cn1cc(C(=O)Nc2ccc(F)cc2-c2ccc(Cl)c(Cl)c2)c(C(F)F)n1` [bixafen]?
**A.** Control value (Erysiphe graminis; 250 ppm): 0; Control value (Erysiphe graminis; 500 ppm): 50

**Q.** Which Control value (Erysiphe graminis; 16 ppm) does the source give for `O=C(NCCc1ncc(C(F)(F)F)cc1Cl)c1ccccc1C(F)(F)F` [fluopyram] here?
**A.** 40

**Q.** What about the Control value (Erysiphe graminis; 31 ppm) of the same compound?
**A.** 70

**Q.** Which results are given for `CCCCCCCCc1c(CC)nc2ncnn2c1N` [ametoctradin]?
**A.** Control value (Erysiphe graminis; 200 ppm): 0; Control value (Erysiphe graminis; 400 ppm): 15

**Q.** For `Cc1nn(C)c(F)c1C(=O)Nc1ccccc1C(C)CC(C)C` (centres unmarked) [penflufen], which Control value (Botrytis cinerea; 50 ppm) is on record?
**A.** 40

**Q.** What about the Control value (Botrytis cinerea; 100 ppm) of the same compound?
**A.** 50
